Measured values published in patent US20040127492A1 (Pharmacia Corporation, priority 2002, published 2004).
Counter-ions that a name gives are not always drawn. Like-named read-outs stand apart in the source and are kept apart here.

Tests used:
[1] = molecular target: MK-3 (Homo sapiens, UniProt Q16644); assay: MK-3 inhibition IC50 (similar method to MK-2, with appropriate modifications); format: biochemical; conditions: Table 1, phenoxypyrazole MK-2 inhibitors; read-out: MK-3 Avg. IC50
Procedure: In practice, the selectivity of a cyclic pyrazole MK-2 inhibitor varies depending upon the condition under which the test is performed and on the inhibitors being tested. However, for the purposes of this specification, the selectivity of a cyclic pyrazole MK-2 inhibitor inhibitor can be measured as a ratio of the in vitro or in vivo IC50 value for inhibition of MK-3, divided by the IC50 value for inhibition of MK-2 (IC50 MK-3/IC50 MK-2). […] The MK-2 or MK-3 inhibiting activity of any of the compounds described herein can be determined by any one of several methods that are well known to those having skill in the art of enzyme activity testing. […] A similar method, with appropriate modifications, Can be used to measure MK-3 inhibitory activity. In addition, the efficacy of one of the present MK-2 inhibiting compounds in therapeutic applications can be determined by testing for inhibition of TNFα production in cell culture and in animal model assays.

[2] = molecular target: MAPKAPK2 (MK-2) (Homo sapiens, UniProt P49137); assay: Determination of MK-2 IC50 (HSP-peptide phosphorylation, anion exchange resin capture assay); format: biochemical
Sequence of MAPKAPK2 (MK-2) (P49137 whole entry, species assumed): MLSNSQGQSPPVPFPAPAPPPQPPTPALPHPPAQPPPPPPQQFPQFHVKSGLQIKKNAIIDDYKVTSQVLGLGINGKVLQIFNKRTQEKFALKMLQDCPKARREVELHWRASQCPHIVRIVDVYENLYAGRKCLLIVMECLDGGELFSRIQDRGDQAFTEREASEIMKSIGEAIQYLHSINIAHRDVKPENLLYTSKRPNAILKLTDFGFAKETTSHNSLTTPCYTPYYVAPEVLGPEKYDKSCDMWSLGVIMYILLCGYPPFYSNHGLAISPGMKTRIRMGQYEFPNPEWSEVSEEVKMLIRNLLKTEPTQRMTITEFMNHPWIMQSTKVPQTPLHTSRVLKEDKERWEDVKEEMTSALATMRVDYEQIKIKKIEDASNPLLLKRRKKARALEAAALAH
Procedure: Determination of MK-2 IC50:
Recombinant MAPKAPK2 was phosphorylated at a concentration of 42-78 μM by incubation with 0.23 μM of active p38α in 50 mM HEPES, 0.1 mM EDTA, 10 mM magnesium acetate, and 0.25 mM ATP, pH 7.5 for one hour at 30° C.
The phosphorylation of HSP-peptide ([…]) by MAPKAPK2 was measured using an anion exchange resin capture assay method. The reaction was carried out in 50 mM β-glycerolphosphate, 0.04% BSA, 10 mM magnesium acetate, 2% DMSO and 0.8 mM dithiotheritol, pH 7.5 in the presence of the HSP-peptide with 0.2 μCi [γ^33P]ATP and 0.03 mM ATP. The reaction was initiated by the addition of 15 nM MAPKAPK2 and was allowed to incubate at 30° C. for 30 min. The reaction was terminated and [γ^33P]ATP was removed from solution by the addition of 150 μl of AG 1×8 ion exchange resin in 900 mM sodium formate pH 3.0. A 50 μl aliquot of head volume was removed from the quenched reaction mixture and added to a 96-well plate, 150 μl of Microscint-40 (Packard) was added and the amount of phosphorylated-peptide was determined. Allow the Microscint to sit in the plates for 60 minutes prior to counting.
Compounds are evaluated as potential inhibitors of the MK-2 kinase by measuring their effects on MK-2 phosphorylation of the peptide substrate. Compounds may be screened initially at two concentrations prior to determination of IC50 values. Screening results are expressed as percent inhibition at the concentrations of compound tested. For IC50 value determinations, Compounds are tested at six concentrations in ten-fold serial dilutions with each concentration tested in triplicate. Results are expressed as IC50 values in micromolar. The assay is performed at a final concentration of 2% DMSO.

Sequence of MK-3 (Q16644 whole entry, species assumed): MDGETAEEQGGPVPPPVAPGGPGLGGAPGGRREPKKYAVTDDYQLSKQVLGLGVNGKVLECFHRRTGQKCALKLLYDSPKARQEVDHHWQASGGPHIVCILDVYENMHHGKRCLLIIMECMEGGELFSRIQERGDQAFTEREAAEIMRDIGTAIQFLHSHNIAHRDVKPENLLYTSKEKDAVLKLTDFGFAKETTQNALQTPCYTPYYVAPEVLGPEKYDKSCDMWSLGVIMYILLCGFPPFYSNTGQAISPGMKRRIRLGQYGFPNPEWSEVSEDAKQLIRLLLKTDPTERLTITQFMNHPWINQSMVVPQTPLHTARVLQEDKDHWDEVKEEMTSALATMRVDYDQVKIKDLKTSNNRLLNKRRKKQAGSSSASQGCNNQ

Row | Compound | IC50 ([2]; read-out: MK-2 Avg. IC50) [µM] | other results
1 | COc1cc2c(cc1CCC(F)(F)F)-c1nn(CCCNC(=O)OC(C)(C)C)c(C(=O)O)c1CC2 [Example 54] | – | IC50 [1]: > 200 µM
2 | O=C(O)c1c2c(nn1CCCNc1cccnc1)-c1ccncc1CC2 [Example 208] | 39.4 | –
3 | O=C1NCCn2nc3c(c21)CCc1c-3ccnc1Nc1ccccc1 [Example 215] | 53.8 | –
4 | O=C1CCCn2nc3c(c21)CCc1cnccc1-3 [Example 219] | 59.5 | –
5 | CN(C)CCNc1cc2c(cn1)CCc1c-2nn2c1C(=O)NCC2 [Example 220] | 60.7 | –
6 | O=C1NCCn2nc3c(c21)CCc1cnc(CCc2ccc(Cl)cc2)cc1-3 [Example 223] | 63.2 | –
7 | O=C(O)c1[nH]nc2c1CCc1cnccc1-2 [Example 224] | 63.4 | –
8 | O=C1NCCn2nc3c(c21)CCc1cnc(N2CCNCC2)cc1-3 [Example 225] | 64.9 | –
9 | O=C(Cc1cccs1)NCCCn1nc2c(c1C(=O)O)CCc1cnccc1-2 [Example 226] | 66.1 | –
10 | O=C(NCCCn1nc2c(c1C(=O)O)CCc1cnccc1-2)c1ccccc1 [Example 227] | 68 | –
11 | CN(C)CC(O)Cn1nc2c(c1C(=O)N(C)C)CCc1cnccc1-2 (stereo not drawn) [Example 228] | 69.3 | –
12 | O=S(=O)(Cc1ccc(Cl)cc1)NC1CCCn2nc3c(c21)CCc1cnccc1-3 (stereo not drawn) [Example 232] | 78.7 | –
13 | O=C(O)c1c2c(nn1CC=NO)-c1ccncc1CC2 [Example 235] | 84.3 | –
14 | c1cc2c(cn1)CCc1c[nH]nc1-2 [Example 238] | 86.1 | –
15 | NC(=O)C1CCN(CC(O)Cn2nc3c(c2C(=O)O)CCc2cnccc2-3)CC1 (stereo not drawn) [Example 240] | 87.6 | –
16 | O=C1NCCCn2nc3c(c21)CCc1cnc(-c2ccc(OCc4ccccc4)cc2)cc1-3 [Example 242] | 93.4 | –
17 | O=C1NCCn2nc3c(c21)CCc1cnc(-c2cccc4ncccc24)cc1-3 [Example 246] | 98.3 | –

Row | Compound | IC50 ([2]; read-out: MK-2 Avg. IC50) [µM] | other results
18 | NCCCn1nc(-c2nnn[nH]2)c2c1-c1ccncc1CC2 [Example 247] | 100 | –
19 | CC(C)(C)c1ccc(-c2cc3c(cn2)CCc2c-3nn3c2C(=O)NCC3)cc1 [Example 248] | 101 | –
20 | CN(c1ccccc1)c1cc2c(cn1)CCc1c-2nn2c1C(=O)NCC2 [Example 250] | 101 | –
21 | CCCn1nc2c(c1C(N)=O)CCc1cnc(-c3cnc4ccccc4c3)cc1-2 [Example 252] | 103 | –
22 | O=C(CCc1ccco1)NCCCn1nc2c(c1C(=O)O)CCc1cnccc1-2 [Example 256] | 116 | –
23 | C=CCn1nc2c(c1C(N)=O)CCc1cnc(-c3cnc4ccccc4c3)cc1-2 [Example 258] | 119 | –
24 | O=C1NCCn2nc3c(c21)CCc1cnc(CCC2CCCCC2)cc1-3 [Example 259] | 121 | –
25 | O=C(O)c1c2c(nn1CC(O)CN1CCOCC1)-c1ccncc1CC2 (stereo not drawn) [Example 260] | 128 | –
26 | O=C(NCCCn1nc2c(c1C(=O)O)CCc1cnccc1-2)c1ccccn1 [Example 261] | 129 | –
27 | ON=C1CCCn2nc3c(c21)CCc1cnccc1-3 [Example 263] | – | IC50 ([2]; MK-2 Avg. IC50): 131 µM
28 | CCCCCCc1cc2c(cn1)CCc1c-2nn2c1C(=O)NCC2 [Example 264] | 133 | –
29 | CN1CCn2nc3c(c2C1=O)CCc1cnccc1-3 [Example 270] | 156 | –
30 | O=C(O)c1c2c(nn1CC(O)CN1CCCC1)-c1ccncc1CC2 (stereo not drawn) [Example 272, hydrochloride] | 162 | –
31 | COC(=O)c1[nH]nc2c1CCc1cnccc1-2 [Example 275] | 171 | –
32 | NCCCn1nc2c(c1CO)CCc1cnccc1-2 [Example 277] | 186 | –
33 | O=C1c2c3c(nn2CC2CCCN1C2)-c1ccncc1CC3 (stereo not drawn) [Example 281] | 191 | –

More lines, main results first:

Row | IC50 ([2]; read-out: MK-2 Avg. IC50) [µM] | Compound | other results
34 | 36.4 | O=C1NCCn2nc3c(c21)CCc1cnc(-c2ccc(OCc4ccccc4)cc2)cc1-3 [Example 205] | –
35 | 36.8 | O=C(O)c1c2c(nn1CC(O)CNCc1cccs1)-c1ccncc1CC2 (stereo not drawn) [Example 206] | –
36 | 42.5 | CCOC(=O)NC(=O)NCCCn1nc2c(c1C(=O)O)CCc1cnccc1-2 [Example 209] | –
37 | 47.9 | NC(=O)C1CCN(CCCn2nc3c(c2C(=O)O)CCc2cnccc2-3)CC1 [Example 210] | –
38 | 50.1 | NC(=O)CCCn1nc2c(c1C(=O)O)CCc1cnccc1-2 [Example 211] | –
39 | 52 | c1ccc2ncc(-c3cc4c(cn3)CCc3c[nH]nc3-4)cc2c1 [Example 212] | –
40 | 53.5 | CCCCNC(=O)NCCCn1nc2c(c1C(=O)O)CCc1cnccc1-2 [Example 213] | –
41 | 53.7 | c1coc(-c2[nH]nc3c2CCc2cnccc2-3)c1 [Example 214] | –
42 | 54.8 | NCCCN1CCn2nc3c(c2C1=O)CCc1cnccc1-3 [Example 216] | –
43 | 55.3 | C=CCNC(=O)NCCCn1nc2c(c1C(=O)O)CCc1cnccc1-2 [Example 217] | –
44 | 56.3 | O=C(O)c1c2c(nn1CCCNCC(F)(F)F)-c1ccncc1CC2 [Example 218] | –
45 | 62.1 | CCC(CC)CNCCn1nc2c(c1C(=O)O)CCc1cnccc1-2 [Example 221] | –
46 | 62.5 | C#Cc1cnc2c(c1)-c1nn(CCN)c(C(=O)OCC)c1CC2 [Example 222] | –
47 | 71 | O=C(O)c1c2c(nn1CC=NO)-c1ccncc1CC2 [Example 229] | –
48 | 75.4 | C=CCn1nc2c(c1C(=O)O)CCc1c[n+]([O-])ccc1-2 [Example 230] | –
49 | 76.6 | Cn1nc2c(c1C(=O)O)CCc1cnccc1-2 [Example 231] | –
50 | 80.6 | Cc1ccc(S(=O)(=O)NC(=O)NCCCn2nc3c(c2C(=O)O)CCc2cnccc2-3)cc1 [Example 233] | –
51 | 83.4 | CSc1nccc2c1CCc1c-2nn(CCCN)c1C(=O)O [Example 234] | –
52 | 84.4 | CC1CCCN(c2cc3c(cn2)CCc2c-3nn3c2C(=O)NCC3)C1 (stereo not drawn) [Example 236] | –
53 | 85.2 | CSc1[nH]nc2c1CCc1cnccc1-2 [Example 237] | –
54 | 87.6 | NCCCn1nc2c(c1C(=O)O)CCc1c-2ccnc1-c1ccccc1 [Example 239] | –

Row | IC50 ([2]; read-out: MK-2 Avg. IC50) [µM] | Compound | other results
55 | 87.9 | Cc1ccc(C(C)CCN(CCCn2nc3c(c2C(=O)O)CCc2cnccc2-3)CCC(C)c2ccc(C)o2)o1 (stereo not drawn) [Example 241] | –
56 | 94.2 | O=C1NCCn2nc3c(c21)CCc1cnc(Cc2ccc(Cl)cc2)cc1-3 [Example 243] | –
57 | 96.5 | FC(F)c1[nH]nc2c1CCc1cnccc1-2 [Example 244] | –
58 | 101 | O=C(O)c1c2c(nn1CCCNc1ccncc1)-c1ccncc1CC2 [Example 249] | –
59 | 102 | O=C1c2c3c(nn2CCN1CCCc1ccccc1)-c1ccncc1CC3 [Example 251] | –
60 | 109 | O=C(NCCCn1nc2c(c1C(=O)O)CCc1cnccc1-2)c1ccncc1 [Example 253] | –
61 | 112 | CC(C)(C)OC(=O)NCCCn1nc2c(c1C(=O)O)CCc1cnc(Cl)cc1-2 [Example 254] | –
62 | 113 | CCCCOc1ccc(S(=O)(=O)NCCCn2nc3c(c2C(=O)O)CCc2cnccc2-3)cc1 [Example 255] | –
63 | 119 | O=C1NCCn2nc3c(c21)CCc1cnc(-c2ccc(Oc4ccccc4)cc2)cc1-3 [Example 257] | –
64 | 130 | N#Cc1ccc(S(=O)(=O)NCCCn2nc3c(c2C(=O)O)CCc2cnccc2-3)cc1 [Example 262] | –
65 | 135 | CNC(=O)c1[nH]nc2c1CCc1cnccc1-2 [Example 265] | –
66 | 136 | NC1CCN(CC(O)Cn2nc3c(c2C(=O)O)CCc2cnccc2-3)CC1 (stereo not drawn) [Example 266] | –
67 | 141 | COc1cccc(S(=O)(=O)NCCCn2nc3c(c2C(=O)O)CCc2cnccc2-3)c1 [Example 267] | –
68 | 149 | CC(C)(C)OC(=O)NC1CCN(CCCn2nc3c(c2C(=O)O)CCc2cnccc2-3)CC1 [Example 269] | –
69 | 161 | COC(=O)c1c2c(nn1CCO)-c1ccncc1CC2 [Example 271, hydrochloride] | –
70 | 163 | O=C(O)c1c2c(nn1CC(O)CNCCc1cccs1)-c1ccncc1CC2 (stereo not drawn) [Example 273] | –
71 | 164 | Cn1cnc(S(=O)(=O)NCCCn2nc3c(c2C(=O)O)CCc2cnccc2-3)c1 [Example 274] | –
72 | 176 | CC(=O)Nc1ccc(S(=O)(=O)NCCCn2nc3c(c2C(=O)O)CCc2cnccc2-3)cc1 [Example 276] | –
73 | 189 | NCCCNC(=O)c1[nH]nc2c1CCc1cnccc1-2 [Example 278] | –
74 | 190 | O=C(NCCCn1nc2c(c1C(=O)O)CCc1cnccc1-2)c1ccco1 [Example 279] | –
75 | 198 | O=C(O)c1c2c(nn1CC(O)CN1CCNCC1)-c1ccncc1CC2 (stereo not drawn) [Example 283] | –
